Each compound was assayed against T1, Ba/F3 cells expressing the p210Bcr-Abl-T315I theramutein (Homo sapiens, UniProt P00519, T315I, cells depend on it) (assay: cellular assay system: growth inhibition (cell count), Ba/F3 T315I cell line). Settings: concentration inhibiting growth of the cell line by 50%, read-out: IC50 activity category, T315I.
T1 construct: IC50 activity category, T315I; T315I cell line; even at 10 μM concentration; fused on or other part: P11274 (Breakpoint cluster region protein)
Type: cell-based, murine

Row | Compound | GI50 [µM]
1 | O=C(C/C=N/Nc1ncc(F)c(N2CCOCC2)n1)Nc1cccc(C(F)(F)F)c1 | > 10
2 | Oc1ccccc1/C=N/Nc1ncc(F)c(N2CCOCC2)n1 | < 10
3 | Fc1cnc(N/N=C/c2ccccc2)nc1N1CCOCC1 | > 10
4 | Oc1cccc(Nc2cccc(Nc3ccc(/C=N/Nc4ncc(F)c(N5CCOCC5)n4)nc3)c2)c1 | < 1
5 | Fc1cnc(N/N=C/c2ccc(Nc3ccc(-c4ccccn4)c(Cl)c3)cn2)nc1N1CCOCC1 | < 1
6 | Fc1cnc(N/N=C/c2ccc(Nc3cccc(C(F)(F)F)c3)cn2)nc1-c1cncc(C2CC2)c1 | < 10
7 | O=C(Nc1cccc(C(F)(F)F)c1)c1cc(Cl)c(O)c(/C=N\Nc2ncc(F)c(N3CCOCC3)n2)c1 | < 1
8 | Cc1cc(Nc2ccc(/C=N/Nc3ncc(F)c(N4CCOCC4)n3)nc2)cc(N2CCNCC2)c1 | < 1
9 | CN(C)c1cc(O)cc(Nc2ccc(/C=N/Nc3ncc(F)c(N4CCOCC4)n3)nc2)c1 | < 1
10 | O=C(Nc1cccc(C(F)(F)F)c1)c1ccc(/C=N/Nc2ncc(F)c(N3CCOCC3)n2)nc1 | < 1
11 | O=C(NNc1ncc(F)c(N2CCOCC2)n1)c1ccc(Nc2cccc(C(F)(F)F)c2)cn1 | < 1
12 | Fc1cnc(N/N=C/c2ccc(-c3cccc(C(F)(F)F)c3)cn2)nc1N1CCOCC1 | < 1
13 | Cc1ccc(/C=N/Nc2ncc(F)c(N3CCOCC3)n2)cc1 | > 10
14 | CC(C(=O)O)c1ccc(Nc2ccc(/C=N/Nc3ncc(F)c(N4CCOCC4)n3)nc2)cc1 (centres unmarked) | > 10
15 | Fc1cnc(N/N=C/c2ccc(Nc3ccc(N4CCOCC4)cc3)cn2)nc1N1CCOCC1 | < 1
16 | Oc1ccc(Br)cc1/C=N/Nc1ncc(F)c(N2CCOCC2)n1 | < 1
17 | Cc1ccccc1/C=N/Nc1ncc(F)c(N2CCOCC2)n1 | > 10
18 | Fc1cnc(N/N=C/c2ccccn2)nc1N1CCOCC1 | < 1
19 | Fc1cnc(N/N=C/c2ccc(Nc3cccc(C(F)(F)F)c3)cn2)nc1-c1cncc(-c2ccccc2)c1 | < 1
20 | O=C(Nc1cccc(C(F)(F)F)c1)c1cccc(/C=N/Nc2ncc(F)c(N3CCOCC3)n2)n1 | > 10
21 | Fc1cnc(N/N=C/c2ccc(Nc3cccc(-n4ccnc4)c3)cn2)nc1N1CCOCC1 | < 1
22 | Cc1cccc(Cl)c1NC(=O)C/C=N/Nc1ncc(F)c(N2CCOCC2)n1 | > 10
23 | Cc1cc(Nc2cccc(C(F)(F)F)c2)ccc1/C=N/Nc1ncc(F)c(N2CCOCC2)n1 | > 10

From patent US20100016298A1, “Theramutein modulators” (priority 2005, published 2010)
